Biological target: R132H mutant IDH1 enzyme (Homo sapiens (Human), UniProt O75874, R132H)
Experiment: R132H IDH1 Enzymatic Assay
Format: biochemical
Conditions: 1.5 nM final, 30 min preincubation, 60 min reaction, Kinase-GLO luminescence
Protocol: R132H IDH1 Enzymatic Assay
Each test compound (10 mM stock in DMSO) is diluted in DMSO to make a 10-point, 3-fold dilution series. 125 nL of each dilution or DMSO alone is dispensed to a 384-well Greiner Lumitrac 200 assay plate using an Echo® Liquid Handler. To each well of the plate is added 20 uL of enzyme in assay buffer or assay buffer alone. Assay buffer consists of 50 mM sodium phosphate, pH 7.0, 50 mM magnesium chloride, 50 mM sodium chloride, and 0.01% (w/v) bovine serum albumin. When present, the R132H mutant IDH1 enzyme is at a working concentration of 1.875 nM (final concentration in assay of 1.5 nM). The assay plate is allowed to incubate for 30 minutes at room temperature and 5 uL of 5× substrate mixture (2.5 uM nicotinamide adenine dinucleotide phosphate, 100 uM adenosine diphosphate, 7.5 mM glyceraldehyde-3-phosphate, 7.5 ug/mL of spinach glyceraldehyde-3-phosphate dehydrogenase, 25 nM phosphoglycerate kinase, and 5 mM alpha-ketoglutarate in assay buffer) is added to all wells. The reaction plate is incubated for 60 minutes followed by addition of 25 uL of Promega Kinase-GLO reagent to all wells and 10-minute incubation.
Luminescence is measured using a PerkinElmer Envision plate reader. The percent activity of each dilution is determined as the ratio of background corrected signal to the background corrected signal of wells receiving only DMSO. IC50 values are determined by fitting percent activity data to a four-parameter logistic dose response equation. The IC50 values of the exemplified compounds are included in Table 8.

R132H mutant IDH1 enzyme, sequence (O75874 whole entry R132H): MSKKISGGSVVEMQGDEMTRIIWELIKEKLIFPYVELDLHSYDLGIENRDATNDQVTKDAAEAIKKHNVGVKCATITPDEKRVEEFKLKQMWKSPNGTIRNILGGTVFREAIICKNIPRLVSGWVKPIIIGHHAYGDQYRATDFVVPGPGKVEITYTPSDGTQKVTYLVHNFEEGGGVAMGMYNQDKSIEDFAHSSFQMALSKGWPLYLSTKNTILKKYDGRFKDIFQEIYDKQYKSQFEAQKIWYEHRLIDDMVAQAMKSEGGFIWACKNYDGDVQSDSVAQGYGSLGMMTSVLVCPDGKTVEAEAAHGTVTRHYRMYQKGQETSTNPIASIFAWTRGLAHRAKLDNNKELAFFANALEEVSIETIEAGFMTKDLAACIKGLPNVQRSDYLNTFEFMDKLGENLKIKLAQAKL

| Compound | IC50 [µM] |
| --- | --- |
| CC(C)O[C@H]1CC[C@H](C(=O)N2Cc3cc(F)cnc3Nc3cc(F)c(N4CC5(CCCOC5)C4)cc32)CC1 [Example 25, [3,9-difluoro-8-(6-oxa-2-azaspiro[3.5]non-2-yl)-5,11-dihydro-6H-pyrido[2,3-b][1,5]benzodiazepin-6-yl][trans-4-(propan-2-yloxy)cyclohexyl]methanone] | 0.0078 |
| CC(C)O[C@H]1CC[C@H](C(=O)N2Cc3cc(F)cnc3Nc3cc(F)c(N4C5CCC4COC5)cc32)CC1 [Example 26, [3,9-difluoro-8-(3-oxa-8-azabicyclo[3.2.1]oct-8-yl)-5,11-dihydro-6H-pyrido[2,3-b][1,5]benzodiazepin-6-yl][trans-4-(propan-2-yloxy)cyclohexyl]methanone] | 0.0138 |
| O=C(C1CCN(CC(F)(F)F)CC1)N1Cc2cccnc2Nc2cc(F)c(N3C[C@@H]4C[C@H]3CO4)cc21 [Example 27, (8-((1S,4S)-2-oxa-5-azabicyclo[2.2.1]heptan-5-yl)-9-fluoro-5,11-dihydro-6H-benzo[b]pyrido[2,3-e][1,4]diazepin-6-yl)(1-(2,2,2-trifluoroethyl)piperidin-4-yl)methanone] | 0.0275 |
| O=C(C1CCN(CC(F)(F)F)CC1)N1Cc2cccnc2Nc2cc(F)c(N3[C@@H]4CO[C@H]5[C@@H]4OC[C@H]53)cc21 [Example 28, (9-fluoro-8-((3R,3aR,6R,6aR)-hexahydro-3,6-epiminofuro[3,2-b]furan-7-yl)-5,11-dihydro-6H-benzo[b]pyrido[2,3-e][1,4]diazepin-6-yl)(1-(2,2,2-trifluoroethyl)piperidin-4-yl)methanone] | 0.0276 |
| O=C(C1CCN(CC(F)(F)F)CC1)N1Cc2cc(F)cnc2Nc2cc(F)c(N3CC4CCC3CO4)cc21 (centres unmarked) [Example 29, (8-(2-oxa-5-azabicyclo[2.2.2]octan-5-yl)-3,9-difluoro-5,11-dihydro-6H-benzo[b]pyrido[2,3-e][1,4]diazepin-6-yl)(1-(2,2,2-trifluoroethyl)piperidin-4-yl)methanone] | 0.0099 |
| CO[C@H]1C[C@H]2CC[C@@H](C1)N2c1cc2c(cc1F)Nc1ncc(F)cc1CN2C(=O)C1CCN(CC(F)(F)F)CC1 [Example 30, (3,9-difluoro-8-((1R,3r,5S)-3-methoxy-8-azabicyclo[3.2.1]octan-8-yl)-5,11-dihydro-6H-benzo[b]pyrido[2,3-e][1,4]diazepin-6-yl)(1-(2,2,2-trifluoroethyl)piperidin-4-yl)methanone] | 0.0141 |
| O=C(C1CCN(CC(F)(F)F)CC1)N1Cc2cc(F)cnc2Nc2cc(F)c(N3C[C@H]4CC[C@@H]3CO4)cc21 [Example 31, (8-((1R,4R)-2-oxa-5-azabicyclo[2.2.2]octan-5-yl)-3,9-difluoro-5,11-dihydro-6H-benzo[b]pyrido[2,3-e][1,4]diazepin-6-yl)(1-(2,2,2-trifluoroethyl)piperidin-4-yl)methanone] | 0.018 |
| O=C(C1CCN(CC(F)(F)F)CC1)N1Cc2cc(F)cnc2Nc2cc(F)c(N3C[C@@H]4CC[C@H]3CO4)cc21 [Example 32, (8-((1S,4S)-2-oxa-5-azabicyclo[2.2.2]octan-5-yl)-3,9-difluoro-5,11-dihydro-6H-benzo[b]pyrido[2,3-e][1,4]diazepin-6-yl)(1-(2,2,2-trifluoroethyl)piperidin-4-yl)methanone] | 0.0181 |
| CC(C)O[C@H]1CC[C@H](C(=O)N2Cc3cc(F)cnc3Nc3ccc([C@H]4COCCO4)cc32)OC1 [Example 33, (8-((S)-1,4-Dioxan-2-yl)-3-fluoro-5,11-dihydro-6H-benzo[b]pyrido[2,3-e][1,4]diazepin-6-yl)((2R,5S)-5-isopropoxytetrahydro-2H-pyran-2-yl)methanone] | 0.0218 |
| CC(C)O[C@H]1CC[C@H](C(=O)N2Cc3cc(F)cnc3Nc3ccc([C@@H]4COCCO4)cc32)OC1 [Example 34, (8-((R)-1,4-dioxan-2-yl)-3-fluoro-5,11-dihydro-6H-benzo[b]pyrido[2,3-e][1,4]diazepin-6-yl)((2R,5S)-5-isopropoxytetrahydro-2H-pyran-2-yl)methanone] | 0.0234 |
| CC(C)O[C@H]1CC[C@H](C(=O)N2Cc3cccnc3Nc3cc(F)c(C4COCCO4)cc32)OC1 (stereo partly drawn) [Example 37, (8-(1,4-dioxan-2-yl)-9-fluoro-5,11-dihydro-6H-benzo[b]pyrido[2,3-e][1,4]diazepin-6-yl)((2R,5S)-5-isopropoxytetrahydro-2H-pyran-2-yl)methanone] | 0.0369 |
| CC(C)O[C@H]1CC[C@H](C(=O)N2Cc3cccnc3Nc3cc(F)c(C4COCCO4)cc32)OC1 (stereo partly drawn) [Example 38, (8-(1,4-dioxan-2-yl)-9-fluoro-5,11-dihydro-6H-benzo[b]pyrido[2,3-e][1,4]diazepin-6-yl)((2R,5S)-5-isopropoxytetrahydro-2H-pyran-2-yl)methanone] | 0.036 |
| CO[C@H]1C[C@H]2CC[C@@H](C1)N2c1ccc2c(c1)N(C(=O)[C@H]1CC[C@H](OC(C)C)CO1)Cc1cc(F)cnc1N2 [Example 39, (3-fluoro-8-((1R,3S,5S)-3-methoxy-8-azabicyclo[3.2.1]octan-8-yl)-5,11-dihydro-6H-benzo[b]pyrido[2,3-e][1,4]diazepin-6-yl)((2R,5S)-5-isopropoxytetrahydro-2H-pyran-2-yl)methanone] | 0.0104 |
| CC(C)O[C@H]1CC[C@H](C(=O)N2Cc3cc(F)cnc3Nc3ccc(N4CC5(CCCOC5)C4)cc32)OC1 [Example 40, (3-fluoro-8-(6-oxa-2-azaspiro[3.5]nonan-2-yl)-5,11-dihydro-6H-benzo[b]pyrido[2,3-e][1,4]diazepin-6-yl)((2R,5S)-5-isopropoxytetrahydro-2H-pyran-2-yl)methanone] | 0.0255 |
| CC(C)O[C@H]1CC[C@H](C(=O)N2Cc3cc(F)cnc3Nc3ccc(N4C[C@H]5COC[C@@H](C4)O5)cc32)OC1 [Example 41, (8-((1R,5S)-3,9-dioxa-7-azabicyclo[3.3.1]nonan-7-yl)-3-fluoro-5,11-dihydro-6H-benzo[b]pyrido[2,3-e][1,4]diazepin-6-yl)((2R,5S)-5-isopropoxytetrahydro-2H-pyran-2-yl)methanone] | 0.021 |
| CC(C)O[C@H]1CC[C@H](C(=O)N2Cc3cc(F)cnc3Nc3ccc(NCC4(CCl)CCCOC4)cc32)OC1 (stereo partly drawn) [Example 42, (8-(((3-(chloromethyl)tetrahydro-2H-pyran-3-yl)methyl)amino)-3-fluoro-5,11-dihydro-6H-benzo[b]pyrido[2,3-e][1,4]diazepin-6-yl)((2R,5S)-5-isopropoxytetrahydro-2H-pyran-2-yl)methanone] | 0.0136 |
| CCS(=O)(=O)N1CCC(C(=O)N2Cc3cc(F)cnc3Nc3ccc(N4CC5CCC4CO5)cc32)CC1 (centres unmarked) [Example 43, (8-(2-oxa-5-azabicyclo[2.2.2]octan-5-yl)-3-fluoro-5,11-dihydro-6H-benzo[b]pyrido[2,3-e][1,4]diazepin-6-yl)(1-(ethylsulfonyl)piperidin-4-yl)methanone] | 0.087 |
| CC(C)O[C@H]1CC[C@H](C(=O)N2Cc3cc(F)cnc3Nc3cc(F)c(N4CC5CCC4CO5)cc32)OC1 (stereo partly drawn) [Example 44, (8-(2-oxa-5-azabicyclo[2.2.2]octan-5-yl)-3,9-difluoro-5,11-dihydro-6H-benzo[b]pyrido[2,3-e][1,4]diazepin-6-yl)((2R,5S)-5-isopropoxytetrahydro-2H-pyran-2-yl)methanone] | 0.0114 |
| CC(C)O[C@H]1CC[C@H](C(=O)N2Cc3cc(F)cnc3Nc3cc(F)c(N4CC5(CCCOC5)C4)cc32)OC1 [Example 45, (3,9-Difluoro-8-(6-oxa-2-azaspiro[3.5]nonan-2-yl)-5H-benzo[b]pyrido[2,3-e][1,4]diazepin-6(11H)-yl)((2R,5S)-5-isopropoxytetrahydro-2H-pyran-2-yl)methanone] | 0.0183 |
| CC(C)O[C@H]1CC[C@H](C(=O)N2Cc3cc(F)cnc3Nc3cc(F)c(N4C[C@@H]5C[C@H]4CO5)cc32)OC1 [Example 46, (8-((1S,4S)-2-oxa-5-azabicyclo[2.2.1]heptan-5-yl)-3,9-difluoro-5,11-dihydro-6H-benzo[b]pyrido[2,3-e][1,4]diazepin-6-yl)((2R,5S)-5-isopropoxytetrahydro-2H-pyran-2-yl)methanone] | 0.0179 |
| CO[C@H]1C[C@H]2CC[C@@H](C1)N2c1cc2c(cc1F)Nc1ncc(F)cc1CN2C(=O)[C@H]1CC[C@H](OC(C)C)CO1 [Example 47, (3,9-difluoro-8-((1R,3S,5S)-3-methoxy-8-azabicyclo[3.2.1]octan-8-yl)-5,11-dihydro-6H-benzo[b]pyrido[2,3-e][1,4]diazepin-6-yl)((2R,5S)-5-isopropoxytetrahydro-2H-pyran-2-yl)methanone] | 0.0158 |
| CC(C)O[C@H]1CC[C@H](C(=O)N2Cc3cc(F)cnc3Nc3ccc(N4C[C@H]5CC[C@@H]4CO5)cc32)OC1 [Example 48, (8-((1R,4R)-2-oxa-5-azabicyclo[2.2.2]octan-5-yl)-3-fluoro-5,11-dihydro-6H-benzo[b]pyrido[2,3-e][1,4]diazepin-6-yl)((2R,5S)-5-isopropoxytetrahydro-2H-pyran-2-yl)methanone] | 0.01 |
| Cn1nccc1-c1cc2c(cc1F)Nc1ncc(F)cc1CN2C(=O)C1CCN(CC(F)(F)F)CC1 [Example 50, (3,9-Difluoro-8-(1-methyl-1H-pyrazol-5-yl)-5,11-dihydro-6H-benzo[b]pyrido[2,3-e][1,4]diazepin-6-yl)(1-(2,2,2-trifluoroethyl)piperidin-4-yl)methanone] | 0.0035 |

Reference: patent US10399972B2, “Tricyclic compounds as inhibitors of mutant IDH enzymes” (Merck Sharp & Dohme Corp., priority 2015, dated 2019)
